Consider seven compounds from patent US8815874B2, “Pyrazolopyrimidine derivative” (Kyowa Hakko Kirin Co., Ltd., priority 2010, dated 2014).

Experiment [1] deals with Dinitrofluorobenzene-Induced Ear Edema Reaction in Mouse. In words: Suppressive action on dinitrofluorobenzene-induced ear edema reaction in mouse (Test Example 1, acetone solvent). It is filed as in vivo. The following applies: BALE/c mice (female); test compound 1% (w/v %) in acetone applied to front and back of auricle 1 hr before and 3 hr after induction; auricle thickness 24 hr after induction. On the procedure:
5-Week to 6-week old BALE/c mice (female, supplied by CHARLES RIVER LABORATORIES JAPAN, INC) were purchased and, after quarantine and habituation, those showing satisfactory body weight increase and free of abnormal appearance were used to start the test from 7 weeks of age. The animals were housed and bred in plastic cages (6 mice per cage) in a breeding chamber set at room temperature 19-25° C., humidity 30-70%, 12 hr illumination per day (7 a.m.-7 p.m.), with free access to a commercially available solid feed and water.
(§1) One day before the test, the abdomen was shaved, and a solution of dinitrofluorobenzene (manufactured by Nacalai Tesque) in acetone (manufactured by Wako Pure Chemical Industries, Ltd.) {concentration 0.5% [weight (w)/volume (v) %]} was applied to the shaved part of BALE/c mice by 100 μL for sensitization. On day 5 after sensitization, a dinitrofluorobenzene-acetone solution [concentration 0.2% (w/v %)] was applied to the front and the back of the auricle by 10 μL each (total 20 μL) to induce reaction. A test compound dissolved in acetone to the concentration of 1% (w/v %) was applied to the front and the back of the auricle 1 hr before and 3 hr after the induction of reaction each by 10 μL (total 20 μL). After the application, the applied part was air-dried by a dryer.
(§2) A group administered with the test compound by coating was taken as a test compound administration group, and a group administered with acetone (solvent) by coating instead of the test compound was taken as a solvent administration group. In addition, a group free of sensitization and induction of reaction and administered with acetone by coating instead of the test compound was taken as a normal group. The thickness of the auricle was measured immediately before induction of reaction and 24 hr after the induction with a dial thickness gauge (manufactured by OZAKI MFG. CO., LTD., G-1A), and the difference between them was taken as ear edema. The ear edema suppressive rate (%) was calculated according to the following formula.

Experiment [2] shares this test system. Kind of experiment: Suppressive action on dinitrofluorobenzene-induced ear edema reaction in mouse (Test Example 2, 50% acetone/50% ethanol solvent). The following applies: BALE/c mice (female); test compound 1% (w/v %) in 50% acetone/50% ethanol applied to front and back of auricle 1 hr before and 3 hr after induction; auricle thickness 24 hr after induction. The format is in vivo. The procedure:
5-Week old BALE/c mice (female, supplied by CHARLES RIVER LABORATORIES JAPAN, INC) were purchased and, after quarantine and habituation, those showing satisfactory body weight increase and free of abnormal appearance were used to start the test from 7 weeks of age. The animals were housed and bred in plastic cages (6 mice per cage) in a breeding chamber set at room temperature 19-25° C., humidity 30-70%, 12 hr illumination per day (7 a.m.-7 p.m.), with free access to a commercially available solid feed and water.
as §1, with “dissolved in 50% acetone/50% ethanol (w/v %) to the” for “dissolved in acetone to the”
as §2, with “50% acetone/50% ethanol (w/v %)” for “acetone”

On to `CCNC(=O)NS(=O)(=O)c1cnn2c(Nc3cc(C)ccc3Cl)c(C(=O)N3CCC(c4ccc(F)cc4)CC3)cnc12` [compound a-14, 7-(2-chloro-5-methylphenylamino)-N-(ethylcarbamoyl)-6-[4-(4-fluorophenyl)piperidine-1-carbonyl]pyrazolo[1,5-a]pyrimidine-3-sulfonamide], for which, in experiment [1], the “ear edema suppressive rate (%)” value came out at 25%.
Still for that read-out and setting: the same measure for `CCNC(=O)NS(=O)(=O)c1cnn2c(Nc3ccc(F)cc3C)c(C(=O)N3CCC4(CC3)OCc3ccccc34)cnc12` [compound a-43, 7-(4-fluoro-2-methylphenylamino)-N-(ethylcarbamoyl)-6-[3H-spiro(isobenzofuran-1,4′-piperidine)-1-carbonyl]pyrazolo[1,5-a]pyrimidine-3-sulfonamide]: 40%.
Turning to `CCC(=O)NS(=O)(=O)c1cnn2c(Nc3cc(C)ccc3Cl)c(C(=O)N3CC4(C3)CN(c3ccc(F)cc3)C4)cnc12` [compound a-60, N-{7-(2-chloro-5-methylphenylamino)-6-[6-(4-fluorophenyl)-2,6-diazaspiro[3,3]heptane-2-carbonyl]pyrazolo[1,5-a]pyrimidin-3-ylsulfonyl}propionamide], the “ear edema suppressive rate (%)” value in experiment [2] worked out at 5%.
Take `O=C(NS(=O)(=O)c1cnn2c(Nc3ccccc3Cl)c(C(=O)N3CCC(c4ccccc4)CC3)cnc12)C1CC1` [compound a-6, N-[7-(2-chlorophenylamino)-6-(4-phenylpiperidine-1-carbonyl)pyrazolo[1,5-a]pyrimidin-3-ylsulfonyl]cyclopropanecarboxamide]: the “ear edema suppressive rate (%)” value in experiment [1] is 30%.
Consider `CCC(=O)NS(=O)(=O)c1cnn2c(Nc3cc(C)c(F)cc3Cl)c(C(=O)N3CCC(c4ccc(F)cc4)CC3)cnc12` [compound a-40, N-{7-(2-chloro-4-fluoro-5-methylphenylamino)-6-[4-(4-fluorophenyl)piperidine-1-carbonyl]pyrazolo[1,5-a]pyrimidin-3-ylsulfonyl}propionamide], for which the “ear edema suppressive rate (%)” value in experiment [2] amounted to 32%.
For the compound `CCC(=O)NS(=O)(=O)c1cnn2c(Nc3cc(Cl)ccc3Cl)c(C(=O)N3CCC(c4ccc(F)cc4)CC3)cnc12` [compound a-22, N-{7-(2,5-dichlorophenylamino)-6-[4-(4-fluorophenyl)piperidine-1-carbonyl]pyrazolo[1,5-a]pyrimidin-3-ylsulfonyl}propionamide], the “ear edema suppressive rate (%)” value in experiment [2] was 16%.
Regarding `CONS(=O)(=O)c1cnn2c(Nc3cc(Cl)ccc3Cl)c(C(=O)N3CCC(c4ccc(F)cc4)CC3)cnc12` [compound a-27, 7-(2,5-dichlorophenylamino)-6-[4-(4-fluorophenyl)piperidine-1-carbonyl]-N-methoxypyrazolo[1,5-a]pyrimidine-3-sulfonamide], the “ear edema suppressive rate (%)” value in experiment [2] was found to be 47%.
